Experimental data: EP3177150B1, “A COMBINATION OF VITAMIN D AND ZINC AND ITS USE” (Société des Produits Nestlé S.A., priority 2014, dated 2016)
Like-named read-outs stand apart in the source and are kept apart here.

Tests used:
[1] = test system: insulin resistant L6 differentiated muscle cells; experiment: glucose uptake (radiolabelled 2-deoxy-D-glucose) in insulin resistant L6 differentiated muscle cells (Palmitate exposure); assay type: cell-based
Description: Each condition was tested in triplicate.

[2] = test system: L6 differentiated muscle cells
Description: The effect of zinc and vitamin D on glucose uptake in L6 differentiated muscle cells was measured after short (2hours) and long term (24 hours) incubations.
Ingredient J was tested at 10 µM and 20 µM.
Ingredient K was tested at 1 nM and 10 nM.
Ingredient J was prepared in water and stored at -20°C (mother solution at 2 M) and ingredient K was prepared in DMSO and stored at -20°C (mother solution at 0.01 mM). The day of the experiment, the ingredients were diluted in a serum-free medium (DMEM) containing 5.5 mM D-glucose to achieve the final tested concentrations and 0.1 % of DMSO.
L6 myoblasts were maintained in growth medium or DMEM 25 mM glucose supplemented with 10 % of fetal bovine serum (FBS), 100 U/ml penicillin, and 100 µg/ml streptomycin. For the glucose uptake study, cells were grown on 24 well plates at a density of 1000-1500 cells/well in 0.5 mL of growth medium. Five days after plating, the differentiation induction into myotubes was carried out in DMEM 25 mM glucose containing 2 % FBS, 100 U/ml penicillin, and 100 µg/ml streptomycin at 37°C under a 5 % CO2 atmosphere. The culture medium was changed every other day.
For short term incubation (2 hours), the day prior to the test, the culture medium was replaced by DMEM 25 mM D-glucose containing 0.25 % BSA, 100 U/ml penicillin, and 100 µg/ml streptomycin. The day after and prior to the test, cells were washed and incubated in DMEM containing 5.5 mM D-glucose, 0.34 % BSA in the presence of the ingredients for 2 hours with and without insulin (100 nM).
For long term incubation (24 hours), the day prior to the test, cells were pre-incubated in the presence of the tested ingredients (ingredient J, K, or a combination thereof) for 18 hours in DMEM 25 mM D-glucose containing 0.25 % BSA, 100 U/ml penicillin, and 100 µg/ml streptomycin in the absence of insulin. The day after and prior to the test, cells were washed and incubated in the presence of the tested ingredients for 6 hours more in DMEM containing 5.5 mM D-glucose, 0.34 % BSA without insulin. Insulin (100 nM) was added for the last 2 hours.
In normal and physiopathological conditions, glucose uptake was measured by incubation of the cells with radiolabelled 2-deoxy-D-[1,2 3H] glucose for 15 min. Glucose uptake was arrested by two washing steps in ice-cold PBS 1X. Then cells were solubilized in 0.1 N NaOH for 30 min. Cell associated radioactivity was then counted and protein quantification was determined using the coloric Lowry method.
Each condition was tested in triplicate. Insulin (100 and 1000 nM / 2 hours) and Metformin (1.5 mM / 24 hours) were used as positive controls.
Results are expressed in pmol glucose incorporated / min / mg protein and in % of control or basal condition or insulin 0 nM (100 %).
A statistical analysis allowing multiple comparisons (one way ANOVA followed by a Dunnett's t test; * P < 0.05, **P < 0.01, ***P < 0.001 versus control condition) was carried out.

[3] = insulin resistant cells (Palmitate 6 hours), short term incubation (2 hrs), absence of insulin
[4] = insulin resistant cells (Palmitate 6 hours), short term incubation (2 hrs), presence of insulin (100 nM)
[5] = insulin resistant cells, long term incubation (24 hrs), absence of insulin
[6] = insulin resistant cells, long term incubation (24 hrs), presence of insulin (100 nM, last 2 hours)
[7] = long term incubation (24 hrs), absence of insulin
[8] = long term incubation (24 hrs), presence of insulin (100 nM, last 2 hours)
[9] = short term incubation (2 hrs), absence of insulin, J 10 and 20 µM, K 1 and 10 nM, versus control
[10] = short term incubation (2 hrs), presence of insulin (100 nM), J 10 and 20 µM, K 1 and 10 nM

Row | Compound | glucose uptake [1, 3] | glucose uptake [1, 4] | glucose uptake [1, 5] | glucose uptake [1, 6] | glucose uptake [2, 7] | glucose uptake [2, 8] | glucose uptake [2, 9] | glucose uptake [2, 10]
1 | [Cl-].[Cl-].[Zn+2] [ingredient J, zinc chloride] | no increase or a slight but not significant increase | no increase or a slight but not significant increase | no increase or a slight but not significant increase | no increase or a slight but not significant increase | no increase or a slight but not significant increase | no increase or a slight but not significant increase | no increase or a slight but not significant increase | no increase or a slight but not significant increase
2 | C=C1/C(=C\C=C2/CCC[C@]3(C)[C@@H]([C@H](C)CCCC(C)(C)O)CC[C@@H]23)C[C@@H](O)C[C@@H]1O [ingredient K, 1,25-dihydroxyvitamin D3] | significant increases | did not increase insulin-induced glucose uptake | no increases or a slight but not significant increase | No increase or a slight but not significant increase | no increases or a slight but not significant increase | No increase or a slight but not significant increase | significant increases | did not increase insulin-induced glucose uptake
